Among the test systems are ACHN renal; HCC-2998 colon; HCT-116 colon; HOP-92 NSCLC; HT29 colon; NCI-H23 lung; NCI-H460 lung; OVCAR-4 ovarian; SK-OV-3 ovarian; UO-31 renal.
Assay in all cases: NCI-60 cell line screen, 48 h

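Compound exposure: 48 hours, 5 concentrations, 96-well plates. GI50 is the concentration that inhibits growth by half. TGI: concentration producing complete growth inhibition.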 A value given as a limit tells only on which side of the number the result lay.

As for `COc1ccc(Nc2nc3ccc(C(F)(F)F)cc3nc2-c2ccccc2)cc1OC`, the TGI is greater than 100 µM in the experiment on ACHN renal; 41.3 µM in the experiment with HCC-2998 colon; greater than 100 µM with HCT-116 colon; 36.9 µM in the experiment on HOP-92 NSCLC; 22.6 µM with HT29 colon; greater than 100 µM with NCI-H23 lung. Further, the TGI in the experiment on NCI-H460 lung was 37.1 µM; in the experiment with OVCAR-4 ovarian, greater than 100 µM; in the experiment with SK-OV-3 ovarian, greater than 100 µM; in the experiment on UO-31 renal, 72.9 µM.

`C#CCOc1cccc(-c2ncnc3cc(NC(=O)CCl)ccc23)c1`: the GI50 with ACHN renal is 0.419 µM; in the experiment on HCC-2998 colon, 1.09 µM; with HCT-116 colon it was 0.034 µM; with HOP-92 NSCLC, 1.42 µM; in the experiment on HT29 colon, 0.0502 µM; in the experiment on NCI-H23 lung, 0.886 µM. In addition, the GI50 in the experiment on NCI-H460 lung was 0.038 µM; in the experiment with OVCAR-4 ovarian it was 1.2 µM; with SK-OV-3 ovarian it was 2.22 µM; in the experiment with UO-31 renal it was 0.36 µM. Besides, the TGI in the experiment with ACHN renal stood at 2.06 µM; with HCC-2998 colon, 2.75 µM; with HCT-116 colon, 1.48 µM; in the experiment on HOP-92 NSCLC, 3.32 µM; in the experiment on HT29 colon it was 1.49 µM; with NCI-H23 lung, 3.14 µM. The TGI worked out at 1.45 µM with NCI-H460 lung, 2.59 µM in the experiment with OVCAR-4 ovarian, 7.38 µM in the experiment on SK-OV-3 ovarian and 2.1 µM in the experiment with UO-31 renal.

For `Cc1ccc(-c2csc(/N=C3\C(=O)Nc4ccccc43)n2)cc1`, the GI50 with ACHN renal is 2.62 µM; in the experiment with HCC-2998 colon, 1.6 µM; in the experiment with HCT-116 colon it was 1.35 µM; in the experiment with HOP-92 NSCLC it was 1.24 µM; with HT29 colon, 1.6 µM; in the experiment with NCI-H23 lung it was 1.46 µM. Besides, the GI50 in the experiment with NCI-H460 lung was 1.76 µM; with OVCAR-4 ovarian, 1.75 µM; in the experiment with SK-OV-3 ovarian, 1.61 µM; in the experiment on UO-31 renal, 1.96 µM. Further, the TGI with ACHN renal amounted to 14.2 µM; in the experiment with HCC-2998 colon, 3.21 µM; in the experiment with HCT-116 colon it was 2.79 µM; with HOP-92 NSCLC, 3.29 µM; in the experiment on HT29 colon it was 4.83 µM; in the experiment on NCI-H23 lung, 2.98 µM. Moreover, the TGI with NCI-H460 lung worked out at 3.74 µM; in the experiment on OVCAR-4 ovarian, 6.48 µM; in the experiment on SK-OV-3 ovarian it was 3.55 µM; in the experiment on UO-31 renal, 22.4 µM.

Turning to `COc1ccc(OC)c(/C(C)=N/NC(N)=S)c1`, the TGI in the experiment on ACHN renal, with HCC-2998 colon, with HCT-116 colon, in the experiment with HOP-92 NSCLC, with HT29 colon and in the experiment on NCI-H23 lung was greater than 100 µM throughout. Moreover, the TGI in the experiment with NCI-H460 lung, in the experiment on OVCAR-4 ovarian, in the experiment with SK-OV-3 ovarian and in the experiment on UO-31 renal was greater than 100 µM each time.

In the case of `COc1cc(NC(N)=NCCC(C)(C)Oc2ccc(C(F)(F)F)cc2)ncc1C#N`, the GI50 was 1.7 µM in the experiment on ACHN renal; 1.58 µM with HCC-2998 colon; 1.46 µM with HCT-116 colon; 1.38 µM in the experiment with HOP-92 NSCLC; 1.64 µM in the experiment on HT29 colon; 1.43 µM in the experiment on NCI-H23 lung. The GI50 in the experiment on NCI-H460 lung is 1.72 µM; with OVCAR-4 ovarian it was 1.58 µM; in the experiment on SK-OV-3 ovarian it was 1.84 µM; in the experiment with UO-31 renal, 1.48 µM. For the same molecule, the TGI with ACHN renal turned out to be 3.06 µM; with HCC-2998 colon, 3.01 µM; in the experiment on HCT-116 colon, 2.83 µM; with HOP-92 NSCLC, 2.8 µM; in the experiment on HT29 colon, 3.03 µM; in the experiment with NCI-H23 lung, 2.81 µM. Moreover, the TGI was determined as 3.39 µM in the experiment with NCI-H460 lung, 3.07 µM with OVCAR-4 ovarian, 3.26 µM in the experiment with SK-OV-3 ovarian and 2.85 µM in the experiment on UO-31 renal.

Regarding `Cc1nc(SCC(=O)Nc2nc(-c3ccc(Cl)cc3)cs2)n(Nc2ccccc2)c1C`, the GI50 in the experiment on ACHN renal is 3.67 µM; with HCC-2998 colon, 10.6 µM; in the experiment with HCT-116 colon it was 1.84 µM; with HOP-92 NSCLC, 1.61 µM; in the experiment with HT29 colon it was 3.78 µM; with NCI-H23 lung, 1.85 µM. The GI50 was 2.89 µM with NCI-H460 lung, 4.6 µM with OVCAR-4 ovarian, 5.91 µM with SK-OV-3 ovarian and 3.59 µM in the experiment on UO-31 renal. Further, the TGI with ACHN renal was found to be 14.1 µM; in the experiment with HCC-2998 colon it was 29.5 µM; in the experiment on HCT-116 colon, 4.62 µM; with HOP-92 NSCLC, 6.89 µM; in the experiment with HT29 colon, 15.4 µM; with NCI-H23 lung it was 6.02 µM. Moreover, the TGI in the experiment on NCI-H460 lung is 11 µM; in the experiment with OVCAR-4 ovarian, 22.1 µM; in the experiment with SK-OV-3 ovarian, 19.8 µM; in the experiment on UO-31 renal it was 37.7 µM.

As for `Cc1cc2c(ccc3c(C)cc(=O)oc32)o1`, the TGI with ACHN renal, in the experiment on HCC-2998 colon, in the experiment with HCT-116 colon, in the experiment with HOP-92 NSCLC, with HT29 colon and with NCI-H23 lung was greater than 100 µM each time. In addition, the TGI with NCI-H460 lung, in the experiment on OVCAR-4 ovarian, with SK-OV-3 ovarian and in the experiment with UO-31 renal was greater than 100 µM throughout.

Turning to `CN(C)CC(C)(C)C(=O)/C=C/c1ccc(/C=C/C(=O)C(C)(C)CN(C)C)cc1`, the TGI turned out to be 2.84 µM in the experiment on ACHN renal; 3.04 µM in the experiment with HCC-2998 colon; 2.55 µM in the experiment on HCT-116 colon; 2.22 µM in the experiment with HOP-92 NSCLC; 1.77 µM in the experiment with HT29 colon; 3.93 µM in the experiment on NCI-H23 lung. Further, the TGI in the experiment with NCI-H460 lung is 13.9 µM; in the experiment with OVCAR-4 ovarian, 2.29 µM; in the experiment with SK-OV-3 ovarian, 8.12 µM; with UO-31 renal, 3.49 µM.

Source of the values: PubChem BioAssay (NCI).
